# According to patent US4915931A, “Tc-99m mononuclide complex compound” (Nihon Medi-Physics Co., Ltd., priority 1988, dated 1990):
# Read-outs that look alike come from different tables or passages of the source.
# Experiments:
# [1] = type: in vivo; settings: mouse
# Protocol: The ^99m Tc-PETS solution as obtained in Example 1 was injected into mice through the tail vein in an amount of 0.1 ml/animal. The mice were sacrificed at pre-determined times after the injection. The radioactivities and weights of various organs and blood taken from the sacrificed mice were measured, and the remaining percentages per gram of each organ were determined. The results are shown in Table 1 wherein the relative ratio of each organ to blood was also shown therein.
# [2] = 7 minutes from the administration
substance,measurement,setting,value
"Tc-99m-labeled pentane-2,4-dione-bis(N-methylthiosemicarbazone) complex compound [^99m Tc-PETS]",distribution ratio brain/blood,[1]; [2],1.67 ratio (unitless)
same,distribution ratio heart/blood,[1]; [2],2.16 ratio (unitless)
same,distribution ratio pancreas/blood,[1]; [2],2.66 ratio (unitless)
same,"distribution to brain, heart and pancreas after administration",[1]; i.v. tail vein,"rapidly distributed to brain, heart and pancreas"
same,"Body distribution, Blood","[1]; i.v. tail vein, 0.5 min",4.31 %/g organ
same,"Body distribution, Brain","[1]; i.v. tail vein, 0.5 min",4.68 %/g organ
same,"Body distribution, Heart","[1]; i.v. tail vein, 0.5 min",15.60 %/g organ
same,"Body distribution, Intestine","[1]; i.v. tail vein, 0.5 min",2.60 %/g organ
same,"Body distribution, Kidney","[1]; i.v. tail vein, 0.5 min",15.30 %/g organ
same,"Body distribution, Liver","[1]; i.v. tail vein, 0.5 min",4.83 %/g organ
same,"Body distribution, Lung","[1]; i.v. tail vein, 0.5 min",11.80 %/g organ
same,"Body distribution, Pancreas","[1]; i.v. tail vein, 0.5 min",7.11 %/g organ
same,"Body distribution, Spleen","[1]; i.v. tail vein, 0.5 min",2.20 %/g organ
same,"Body distribution, Stomach","[1]; i.v. tail vein, 0.5 min",1.95 %/g organ
same,Brain/blood ratio,"[1]; i.v. tail vein, 0.5 min",1.09
same,Pancreas/blood ratio,"[1]; i.v. tail vein, 0.5 min",1.60
same,heart/blood ratio,"[1]; i.v. tail vein, 0.5 min",3.52
same,"Body distribution, Blood","[1]; i.v. tail vein, 2 min",3.21 %/g organ
same,"Body distribution, Brain","[1]; i.v. tail vein, 2 min",4.16 %/g organ
same,"Body distribution, Heart","[1]; i.v. tail vein, 2 min",6.31 %/g organ
same,"Body distribution, Intestine","[1]; i.v. tail vein, 2 min",3.17 %/g organ
same,"Body distribution, Kidney","[1]; i.v. tail vein, 2 min",10.90 %/g organ
same,"Body distribution, Liver","[1]; i.v. tail vein, 2 min",11.70 %/g organ
same,"Body distribution, Lung","[1]; i.v. tail vein, 2 min",8.18 %/g organ
same,"Body distribution, Pancreas","[1]; i.v. tail vein, 2 min",7.32 %/g organ
same,"Body distribution, Spleen","[1]; i.v. tail vein, 2 min",3.24 %/g organ
same,"Body distribution, Stomach","[1]; i.v. tail vein, 2 min",2.66 %/g organ
same,Brain/blood ratio,"[1]; i.v. tail vein, 2 min",1.30
same,Pancreas/blood ratio,"[1]; i.v. tail vein, 2 min",2.29
same,heart/blood ratio,"[1]; i.v. tail vein, 2 min",2.17
same,"Body distribution, Blood","[1]; i.v. tail vein, 5 min",2.34 %/g organ
same,"Body distribution, Brain","[1]; i.v. tail vein, 5 min",2.93 %/g organ
same,"Body distribution, Heart","[1]; i.v. tail vein, 5 min",4.08 %/g organ
same,"Body distribution, Intestine","[1]; i.v. tail vein, 5 min",3.65 %/g organ
same,"Body distribution, Kidney","[1]; i.v. tail vein, 5 min",6.20 %/g organ
same,"Body distribution, Liver","[1]; i.v. tail vein, 5 min",20.10 %/g organ
same,"Body distribution, Lung","[1]; i.v. tail vein, 5 min",3.95 %/g organ
same,"Body distribution, Pancreas","[1]; i.v. tail vein, 5 min",4.30 %/g organ
same,"Body distribution, Spleen","[1]; i.v. tail vein, 5 min",3.72 %/g organ
same,"Body distribution, Stomach","[1]; i.v. tail vein, 5 min",1.97 %/g organ
same,Brain/blood ratio,"[1]; i.v. tail vein, 5 min",1.37
same,Pancreas/blood ratio,"[1]; i.v. tail vein, 5 min",1.86
same,heart/blood ratio,"[1]; i.v. tail vein, 5 min",1.88
same,"Body distribution, Blood","[1]; i.v. tail vein, 7 min",1.21 %/g organ
same,"Body distribution, Brain","[1]; i.v. tail vein, 7 min",1.85 %/g organ
same,"Body distribution, Heart","[1]; i.v. tail vein, 7 min",2.41 %/g organ
same,"Body distribution, Intestine","[1]; i.v. tail vein, 7 min",2.96 %/g organ
same,"Body distribution, Kidney","[1]; i.v. tail vein, 7 min",5.03 %/g organ
same,"Body distribution, Liver","[1]; i.v. tail vein, 7 min",19.10 %/g organ
same,"Body distribution, Lung","[1]; i.v. tail vein, 7 min",2.87 %/g organ
same,"Body distribution, Pancreas","[1]; i.v. tail vein, 7 min",3.18 %/g organ
same,"Body distribution, Spleen","[1]; i.v. tail vein, 7 min",3.06 %/g organ
same,"Body distribution, Stomach","[1]; i.v. tail vein, 7 min",1.63 %/g organ
same,Brain/blood ratio,"[1]; i.v. tail vein, 7 min",1.67
same,Pancreas/blood ratio,"[1]; i.v. tail vein, 7 min",2.66
same,heart/blood ratio,"[1]; i.v. tail vein, 7 min",2.16
same,"Body distribution, Blood","[1]; i.v. tail vein, 15 min",1.46 %/g organ
same,"Body distribution, Brain","[1]; i.v. tail vein, 15 min",0.97 %/g organ
same,"Body distribution, Heart","[1]; i.v. tail vein, 15 min",1.76 %/g organ
same,"Body distribution, Intestine","[1]; i.v. tail vein, 15 min",4.63 %/g organ
same,"Body distribution, Kidney","[1]; i.v. tail vein, 15 min",4.40 %/g organ
same,"Body distribution, Liver","[1]; i.v. tail vein, 15 min",21.90 %/g organ
same,"Body distribution, Lung","[1]; i.v. tail vein, 15 min",2.56 %/g organ
same,"Body distribution, Pancreas","[1]; i.v. tail vein, 15 min",2.19 %/g organ
same,"Body distribution, Spleen","[1]; i.v. tail vein, 15 min",1.98 %/g organ
same,"Body distribution, Stomach","[1]; i.v. tail vein, 15 min",1.50 %/g organ
same,Brain/blood ratio,"[1]; i.v. tail vein, 15 min",0.68
same,Pancreas/blood ratio,"[1]; i.v. tail vein, 15 min",1.52
same,heart/blood ratio,"[1]; i.v. tail vein, 15 min",1.21
same,"Body distribution, Blood","[1]; i.v. tail vein, 30 min",3.27 %/g organ
same,"Body distribution, Brain","[1]; i.v. tail vein, 30 min",0.63 %/g organ
same,"Body distribution, Heart","[1]; i.v. tail vein, 30 min",2.01 %/g organ
same,"Body distribution, Intestine","[1]; i.v. tail vein, 30 min",7.68 %/g organ
same,"Body distribution, Kidney","[1]; i.v. tail vein, 30 min",5.06 %/g organ
same,"Body distribution, Liver","[1]; i.v. tail vein, 30 min",31.70 %/g organ
same,"Body distribution, Lung","[1]; i.v. tail vein, 30 min",3.20 %/g organ
same,"Body distribution, Pancreas","[1]; i.v. tail vein, 30 min",2.05 %/g organ
same,"Body distribution, Spleen","[1]; i.v. tail vein, 30 min",2.85 %/g organ
same,"Body distribution, Stomach","[1]; i.v. tail vein, 30 min",2.31 %/g organ
same,Brain/blood ratio,"[1]; i.v. tail vein, 30 min",0.19
same,Pancreas/blood ratio,"[1]; i.v. tail vein, 30 min",0.69
same,heart/blood ratio,"[1]; i.v. tail vein, 30 min",0.62
same,octanol/buffer distribution ratio,"n-octanol / 0.06 M phosphate buffer, pH 7.0, 37° C., 15 min",191.3
same,lipophilic property compared with ^99m Tc-KTS,"octanol/buffer, pH 7",much higher than that of ^99m Tc-KTS
